US5387578A (priority 1990, dated 1995)

Experiments:
[1] = tested on: LoVo-Doxo-resistant (LoVo/DX) cells; type: cell-based; details: human, lovo/dx vs lovo cells, 240 min
[2] = Release of 13b from conjugates in acetate buffer at 37° C.; type: physicochemical; details: pH 5, 37° C., ionic strength 0.05M, HPLC
Procedure: In Table 4 are reported t50 % of release of 3'deamino-3'[2(S) -methoxy-4-morpholinyl]doxorubicin (13b) from the conjugates at […] (acetate buffer) at 37° C.
Release of 13b from conjugates at pH 5 and
temperature 37° C. in acetate buffer^(7).
^(6) Time requests for the release of 50% of free drug 13b. Determine
by HPLC using a calibration curve of compound 13b.
^(7) Ionic strenght 0.05M.

Row | Molecule | R.I. = Resistance Index = (IC50 LoVo/DX)/(IC50 LoVo) [1] | t50% (time for the release of 50% of free drug 13b) [2] [h]
1 | COc1cccc2c1C(=O)c1c(O)c3c(c(O)c1C2=O)C[C@@](O)(C(=O)CO)C[C@@H]3O[C@H]1C[C@H](N2CCO[C@H](OC)C2)[C@H](O)[C@H](C)O1 [Compound 13b] | 2 | –
2 | COc1cccc2c1C(=O)c1c(O)c3c(c(O)c1C2=O)C[C@@](O)(C(=O)CO)C[C@@H]3O[C@H]1C[C@H](N)[C@H](O)[C@H](C)O1 [Doxorubicin] | 36.3 | –
3 | conjugate of Poly(Glu-Na, Ala.Tyr) (1:1:1) and 14-O-(1-piperazinocarbonylmethyloxy-cyclohexyl)-3'-deamino[2(S)-methoxy-4- morpholinyl]doxorubicin [1^viii] | – | 3.5
4 | copolymer of 3-methacryloylamino-2-hydroxypropane and 14-O-{1-[4-(6-methacryloylaminocaproyl)piperazinlyl]-carbonylmethyloxy-cyclohexyl}-3'-deamino-3'[2(S)-methoxy-4-morpholinyl]doxorubicin [1^vii] | – | 20
